Measured values as given in PubChem BioAssay (NCI).
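Values below derive from 48-hour exposures of cells grown in 96-well plates, with endpoints linearly interpolated between the two concentrations bracketing the appropriate inhibition level. Abbreviation: GI50, concentration required for 50% inhibition of growth. TGI: concentration producing complete growth inhibition.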

These compounds were tested on MDA-MB-231 breast (assay: NCI anticancer screen, dose series, 48 h).

| SMILES | GI50 [µM] | TGI [µM] |
| --- | --- | --- |
| CCN(CC)Cc1cc(Nc2c3ccccc3nc3cc(Cl)ccc23)ccc1O | 1.73 | 3.59 |
| O=C(O)CCc1nc(-c2ccccc2-n2cccc2)no1 |  | > 100 |
| CCCCCCCCCCSC(=N)N | 2.51 | 9.15 |
| Cc1cc2nc(-c3c(F)cccc3Cl)n(Cc3c(F)cccc3Cl)c2cc1C | 10.4 | 23.1 |
| O=C(/C=C/c1ccccc1)CCC1C(=O)NC(=S)NC1=O |  | > 100 |

These compounds were tested on M14 melanoma (assay: NCI anticancer screen, dose series, 48 h).

| SMILES | TGI [µM] | GI50 [µM] |
| --- | --- | --- |
| O=S1(=O)c2ccccc2N=C(c2ccccc2Cl)CC1c1ccc(F)cc1 (stereo unspecified) | 35.3 |  |
| CCN(CC)Cc1cc(Nc2c3ccccc3nc3cc(Cl)ccc23)ccc1O | 3.18 | 1.76 |
| CC1=CC(=O)NP(=O)(C23CC4CC(CC(C4)C2)C3)N1 (stereo unspecified) | > 100 |  |
| O=c1[nH]cc(C(F)(C(F)(F)F)C(F)(F)F)c(=O)[nH]1 | > 100 |  |
| COc1ccc2c(c1)c1c3n2CCNN=C3CCC1 | > 100 |  |
| CC(=O)[C-](C(C)=O)c1ccccc1.CC(=O)[C-](C(C)=O)c1ccccc1.CC(=O)[C-](C(C)=O)c1ccccc1.[Cl-].[Zr+4] | > 100 | > 100 |
| CC(C)N1C(C)[C@@H](c2ccccc2)O[P@]1(=O)CC1=CCCCC1 (stereo partly specified) | > 100 |  |
| O=C(O)CCc1nc(-c2ccccc2-n2cccc2)no1 | > 100 |  |
| COC(=O)C(=O)C(C(=O)C(=O)Nc1cc(Cl)c(Cl)cc1Cl)c1nc2ccc([N+](=O)[O-])cc2[nH]c1=O (stereo unspecified) | > 100 |  |
| COc1ccc(NC(=O)C2C(=O)N(c3ccc(OC)cc3)C(=O)/C2=N\NC(N)=O)cc1 (stereo unspecified) | > 100 |  |
| C/C(=N\NS(=O)(=O)c1ccc([N+](=O)[O-])cc1)c1ccc[n+]([O-])n1 | 4.84 |  |
| S=c1c2ccccc2c(=S)n2n1CC=CC2 | > 100 |  |
| CC(C)(C)Sc1nnc(SC(C)(C)C)c2c(=O)[nH]nc(SC(C)(C)C)c12 | 28.9 |  |
| CCCCNC1=C(C(=O)OCC)/C(=N/NC(=O)c2ccccc2O)CO1 | > 100 |  |
| N#CC(C(=O)CCCC(=O)Nc1ccc(Cl)cc1Cl)c1ccc(Cl)cc1 (stereo unspecified) | > 100 |  |
| O=CCCCC(Sc1ccccc1)Sc1ccccc1 | 51.3 |  |

| SMILES | TGI [µM] | GI50 [µM] |
| --- | --- | --- |
| COc1ccc(C)cc1C1CCC(=O)O1 (stereo unspecified) | > 100 |  |
| Cc1ccc2nc(NC(=O)C(=O)CC(=O)c3cccc4ccccc34)sc2c1 | 44.2 |  |
| O=C1CCC(=O)c2sccc2N1 | > 100 |  |
| CCCCCCCCCCCCCCCCCC(=O)NCC(COP(=O)(O)O)OCC (stereo unspecified) | > 100 |  |
| CCCCCCCCCCSC(=N)N | 3.57 | 1.89 |
| Cn1nc(-c2ccccc2)c(C(=O)/C=C/c2ccc(Cl)cc2)c(N2CCCC2)c1=O | 22.2 |  |
| Cc1cc2nc(-c3c(F)cccc3Cl)n(Cc3c(F)cccc3Cl)c2cc1C | 26.7 | 11.5 |
| O=C1C=Cc2ncccc2C1=O | 32 |  |
| C/C(CC(=O)Nc1cccc([N+](=O)[O-])c1)=N\NC(=O)CC#N | > 100 |  |
| [CH3][Sn]1([CH3])[O]CC(COc2cc(Cl)c(Cl)cc2Cl)[O]1 (stereo unspecified) | > 100 | 39.6 |
| O=C(/C=C/c1ccccc1)CCC1C(=O)NC(=S)NC1=O | > 100 |  |
| CCc1cc(Cc2ccc(C)c(NC(=O)C(=O)C3C(=O)NC(=O)NC3=O)c2CC)cc(C)c1NC(=O)C(=O)C1C(=O)NC(=O)NC1=O | > 100 |  |
| CC(=O)OC(=O)O/C=C\CCl | > 100 |  |
| CC(=O)c1c2c(cc3c1CC1(C3)Cc3cc4c(c(C(=O)O)c3C1)CCC4)CCC2 (stereo unspecified) | > 100 |  |
| Cc1ccc(/C=N/NS(=O)(=O)c2ccccc2)c(C)c1 | > 100 |  |
| Cc1noc(/N=C2\C=C(Nc3onc(C)c3C)C(=O)c3ccccc32)c1C | > 100 |  |

These compounds were tested on SF-295 CNS (assay: NCI anticancer screen, dose series, 48 h).

| SMILES | TGI [µM] | GI50 [µM] |
| --- | --- | --- |
| O=S1(=O)c2ccccc2N=C(c2ccccc2Cl)CC1c1ccc(F)cc1 (stereo unspecified) | 34.4 |  |
| CCN(CC)Cc1cc(Nc2c3ccccc3nc3cc(Cl)ccc23)ccc1O | 4.86 | 1.9 |
| CC1=CC(=O)NP(=O)(C23CC4CC(CC(C4)C2)C3)N1 (stereo unspecified) | > 100 |  |
| O=c1[nH]cc(C(F)(C(F)(F)F)C(F)(F)F)c(=O)[nH]1 | > 100 |  |
| COc1ccc2c(c1)c1c3n2CCNN=C3CCC1 | > 100 |  |
| CC(=O)[C-](C(C)=O)c1ccccc1.CC(=O)[C-](C(C)=O)c1ccccc1.CC(=O)[C-](C(C)=O)c1ccccc1.[Cl-].[Zr+4] | > 100 | > 100 |
| CC(C)N1C(C)[C@@H](c2ccccc2)O[P@]1(=O)CC1=CCCCC1 (stereo partly specified) | > 100 |  |
| O=C(O)CCc1nc(-c2ccccc2-n2cccc2)no1 | > 100 |  |
| COC(=O)C(=O)C(C(=O)C(=O)Nc1cc(Cl)c(Cl)cc1Cl)c1nc2ccc([N+](=O)[O-])cc2[nH]c1=O (stereo unspecified) | > 100 |  |
| COc1ccc(NC(=O)C2C(=O)N(c3ccc(OC)cc3)C(=O)/C2=N\NC(N)=O)cc1 (stereo unspecified) | > 100 |  |
| C/C(=N\NS(=O)(=O)c1ccc([N+](=O)[O-])cc1)c1ccc[n+]([O-])n1 | 7.05 |  |
| S=c1c2ccccc2c(=S)n2n1CC=CC2 | > 100 |  |
| CC(C)(C)Sc1nnc(SC(C)(C)C)c2c(=O)[nH]nc(SC(C)(C)C)c12 | 23.8 |  |
| CCCCNC1=C(C(=O)OCC)/C(=N/NC(=O)c2ccccc2O)CO1 | > 100 |  |
| N#CC(C(=O)CCCC(=O)Nc1ccc(Cl)cc1Cl)c1ccc(Cl)cc1 (stereo unspecified) | > 100 |  |
| O=CCCCC(Sc1ccccc1)Sc1ccccc1 | 40.7 |  |

| SMILES | TGI [µM] | GI50 [µM] |
| --- | --- | --- |
| COc1ccc(C)cc1C1CCC(=O)O1 (stereo unspecified) | > 100 |  |
| Cc1ccc2nc(NC(=O)C(=O)CC(=O)c3cccc4ccccc34)sc2c1 | 48.4 |  |
| O=C1CCC(=O)c2sccc2N1 | > 100 |  |
| CCCCCCCCCCCCCCCCCC(=O)NCC(COP(=O)(O)O)OCC (stereo unspecified) | 37.5 |  |
| CCCCCCCCCCSC(=N)N | 3.51 | 1.72 |
| Cn1nc(-c2ccccc2)c(C(=O)/C=C/c2ccc(Cl)cc2)c(N2CCCC2)c1=O | 11.6 |  |
| Cc1cc2nc(-c3c(F)cccc3Cl)n(Cc3c(F)cccc3Cl)c2cc1C | 33.3 | 6.92 |
| O=C1C=Cc2ncccc2C1=O | 32.2 |  |
| C/C(CC(=O)Nc1cccc([N+](=O)[O-])c1)=N\NC(=O)CC#N | > 100 |  |
| [CH3][Sn]1([CH3])[O]CC(COc2cc(Cl)c(Cl)cc2Cl)[O]1 (stereo unspecified) | > 100 | 38.8 |
| O=C(/C=C/c1ccccc1)CCC1C(=O)NC(=S)NC1=O | > 100 |  |
| CC(=O)c1c2c(cc3c1CC1(C3)Cc3cc4c(c(C(=O)O)c3C1)CCC4)CCC2 (stereo unspecified) | > 100 |  |
| Cc1ccc(/C=N/NS(=O)(=O)c2ccccc2)c(C)c1 | > 100 |  |
| C#CCOCn1cnc2ncnc(N)c21 | > 100 |  |
| Cc1noc(/N=C2\C=C(Nc3onc(C)c3C)C(=O)c3ccccc32)c1C | > 100 |  |
